This assay addresses T1, human CXCR4 receptor (Homo sapiens, UniProt P61073).
T1 construct: expressed in transfected cells
Briefly: Measurement of intracellular Ca+2 responses (FLIPR), antagonism of the SDF-1α response. Type of assay: cell-based. As to conditions: for IC50: HEK-Gqi5 cells stably expressing human CXCR4, Fluo-4 FLIPR, antagonism of SDF-1α 1.9 nM (EC65); for CXCR4 (% Inh): percent antagonism of SDF-1α 1.9 nM (EC65) response, HEK-Gqi5 human CXCR4 cells, value in brackets. How it is done:
Measurement of Intracellular Ca^+2 Responses for CXCR4 Compounds
HEK-Gqi5 cells stably expressing the human CXCR4 receptor were utilized for these studies. The growth media for the CXCR4 receptor expressing cell line was DMEM high glucose medium supplemented with 10% fetal bovine serum (FBS), 1% antibiotic-antimycotic, 50 ug/ml hygromycin B, and 400 μg/ml geneticin. Ten thousand cells per well were plated into 384-well poly-D-lysine coated plates one day prior to use. On the day of the experiment, the cells were washed twice with Hank's Balanced Salt Solution supplemented with 20 mM hepes (HBSS/hepes buffer). The cells were then dye loaded with 2 uM Fluo-4 diluted in the HBSS/Hepes buffer and incubated at 37° C. for 40 minutes. Extracellular dye was removed by washing the cell plates four times prior to placing the plates in the FLIPR (Fluorometric Imaging Plate Reader, Molecular Devices). Ligands were diluted in HBSS/Hepes buffer and prepared in 384-well microplates. The positive control, stromal-cell derived factor-1 (SDF-1α), was diluted in HBSS/Hepes buffer with 4 mg/ml fatty acid free bovine serum albumin. Two drug additions were made by the FLIPR. The first drug addition was the test drug in concentrations ranging from 2.44 nM to 40,000 nM. After this addition, fluorescent measurements were taken. Any calcium release in response to this drug addition represents agonist activity of the compounds. The second drug addition was SDF-1α at a final concentration of 1.9 nM (EC65). Fluorescence measurements were also taken after this second drug addition and were used to determine the ability of the test compounds to antagonize the SDF-1α response. Results were expressed as EC50 and efficacy values, as well as IC50 and percent antagonism values. As controls, SDF-1α (CXCR4 agonist) and AMD3100 (CXCR4 antagonist) dose-response curves were also determined in each study.

T1 sequence (P61073 whole entry): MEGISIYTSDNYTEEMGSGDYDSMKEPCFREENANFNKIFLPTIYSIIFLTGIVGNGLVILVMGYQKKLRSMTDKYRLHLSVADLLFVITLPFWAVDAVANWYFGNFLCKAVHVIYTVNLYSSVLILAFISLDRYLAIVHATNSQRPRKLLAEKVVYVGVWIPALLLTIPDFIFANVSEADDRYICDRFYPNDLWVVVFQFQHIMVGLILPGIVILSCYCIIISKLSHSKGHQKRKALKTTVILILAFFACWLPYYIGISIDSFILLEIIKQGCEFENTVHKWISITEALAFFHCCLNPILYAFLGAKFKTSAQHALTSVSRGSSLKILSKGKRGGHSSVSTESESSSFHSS

Broadly, the IC50 is the midpoint of a concentration-inhibition curve. High values mean lower potency, low ones higher potency. With `COc1cccc(N(C)C)c1CN1CCC(Nc2nc(NCCN3CCN(C)CC3)nc3ccccc23)CC1` [Compound 154, N˜4˜-{1-[2-(Dimethylamino)-6-methoxybenzyl]piperidin-4-yl}-N˜2˜-[2-(4-methylpiperazin-1-yl)ethyl]quinazoline-2,4-diamine], the “CXCR4 (% Inh)” value turned out to be 97%. This compound showed an IC50 (values in nM) of 560 nM.

Regarding `CNCC1CN(c2nc(NC3CCN(Cc4c(OC)cccc4N(C)C)CC3)c3ccccc3n2)C1` [Compound 104, N-(1-(2-(Dimethylamino)-6-methoxybenzyl)piperidin-4-yl)-2-(3-((methylamino)methyl)azetidin-1-yl)quinazolin-4-amine], the “CXCR4 (% Inh)” value was determined as 97%. The compound further displayed an IC50 (values given in μM) of 1000 nM.

`COc1cccc(N(C)C)c1CN1CCC(Nc2nc(NCCN3CC(C)OC(C)C3)nc3ccccc23)CC1` (stereo not drawn) [Compound 95, N4-(1-(2-(Dimethylamino)-6-methoxybenzyl)piperidin-4-yl)-N2-(2-(2,6-dimethylmorpholino)ethyl)quinazoline-2,4-diamine]: the “CXCR4 (% Inh)” value is recorded as 98%. Moreover, the IC50 (values in nM) is 605 nM.

Turning to “N˜4˜-{1-[2-(Dimethylamino)-6-methoxybenzyl]pyrrolidin-3-yl}-N˜2˜-[3-(dimethylamino)propyl]-6,7-dimethoxyquinazoline-2,4-diamine [Compound 161]”, the “CXCR4 (% Inh)” value is given as 92%. Also, 1900 nM corresponded to half-maximal inhibition (values given in μM) (IC50).

Regarding `CN(C)CCCNc1nc(NC2CCN(Cc3ccccc3-n3cccc3)CC2)c2ccccc2n1` [Compound 130, N4-(1-(2-(1H-Pyrrol-1-yl)benzyl)piperidin-4-yl)-N2-(3-(dimethylamino)propyl)quinazoline-2,4-diamine], the “CXCR4 (% Inh)” value stood at 75%. Where the note is “values in nM”, this compound displayed an IC50 of 978 nM.

Turning to “N˜4˜-{1-[2-(Dimethylamino)-6-methoxybenzyl]pyrrolidin-3-yl}-N˜2˜-[3-(dimethylamino)propyl]-6,7-dimethoxyquinazoline-2,4-diamine [Compound 165]”, the “CXCR4 (% Inh)” value came to 97%. For the same compound, where the note is “values in nM”, the IC50 is 538 nM.

For the compound `COc1cccc(N(C)C)c1CN1CCC(Nc2nc(NCC(C)(C)CN(C)C)nc3ccccc23)CC1` [Compound 96, N2-(3-(Dimethylamino)-2,2-dimethylpropyl)-N4-(1-(2-(dimethylamino)-6-methoxybenzyl)piperidin-4-yl)quinazoline-2,4-diamine], the “CXCR4 (% Inh)” value is listed as 100%. The compound further showed an IC50 (values in nM) of 240 nM.

`CCN(CC)CCCNc1nc(NC2CCN(Cc3cccc(C)c3N(C)C)CC2)c2ccccc2n1` [Compound 152, N˜2˜-[3-(Diethylamino)propyl]-N˜4˜-{1-[2-(dimethylamino)-3-methylbenzyl]piperidin-4-yl}quinazoline-2,4-diamine]: the “CXCR4 (% Inh)” value amounted to 100%. In addition, the IC50 (values given in μM) turned out to be 1400 nM.

Take `COc1cccc(N(C)C)c1CN1CCC(Nc2nc(NC[C@@H]3CCNC3)nc3ccccc23)CC1` [Compound 113, (R)—N-4-(1-(2-(Dimethylamino)-6-methoxybenzyl)piperidin-4-yl)-N2-(pyrrolidin-3-ylmethyl)quinazoline-2,4-diamine]: the “CXCR4 (% Inh)” value is given as 99%. The compound also registered an IC50 (values in nM) of 129 nM.

As to `COc1cccc(N(C)C)c1CN1CCCC(Nc2nc(NCCCN(C)C)nc3ccccc23)CC1` (stereo not drawn) [Compound 174, N˜4˜-{1-[2-(Dimethylamino)-6-methoxybenzyl]azepan-4-yl}-N˜2˜-[3-(dimethylamino)propyl]quinazoline-2,4-diamine], the “CXCR4 (% Inh)” value was determined as 97%. Further, the IC50 (values in nM) was found to be 770 nM.

`CCN(CC)CCCNc1nc(NC2CCN(Cc3c(OCCN(C)C)cccc3N(C)C)CC2)c2cc(OC)c(OC)cc2n1` [Compound 166, N˜2˜-[3-(Diethylamino)propyl]-N˜4˜-(1-{2-(dimethylamino)-6-[2-(dimethylamino)ethoxy]benzyl}piperidin-4-yl)-6,7-dimethoxyquinazoline-2,4-diamine]: the “CXCR4 (% Inh)” value was determined as 94%. The compound further returned an IC50 (values in nM) of 49 nM.

For the compound `COc1cccc(N(C)C)c1CN1CCC(Nc2nc(N3CCCC(C(N)=O)C3)nc3ccccc23)CC1` (stereo not drawn) [Compound 85, 1-(4-(1-(2-(Dimethylamino)-6-methoxybenzyl)piperidin-4-ylamino)quinazolin-2-yl)piperidine-3-carboxamide], the “CXCR4 (% Inh)” value is recorded as 93%. Also, the IC50 (values given in μM) stood at 4900 nM.

As for `COc1cc2nc(NCCc3ncc[nH]3)nc(NC3CCN(Cc4c(OCCN(C)C)cccc4N(C)C)CC3)c2cc1OC` [Compound 210, N˜4˜-(1-{2-(Dimethylamino)-6-[2-(dimethylamino)ethoxy]benzyl}piperidin-4-yl)-N˜2˜-[2-(1H-imidazol-2-yl)ethyl]-6,7-dimethoxyquinazoline-2,4-diamine], the “CXCR4 (% Inh)” value was determined as 97%. For the setting “values in nM”, this compound registered an IC50 of 65 nM.

`COc1cc2nc(NCc3cncn3C)nc(NC3CCN(Cc4c(OCCN(C)C)cccc4N(C)C)CC3)c2cc1OC` [Compound 198, N˜4˜-(1-{2-(Dimethylamino)-6-[2-(dimethylamino)ethoxy]benzyl}piperidin-4-yl)-6,7-dimethoxy-N˜2˜-[(1-methyl-1H-imidazol-5-yl)methyl]quinazoline-2,4-diamine]: the “CXCR4 (% Inh)” value is 98%. Where the note is “values in nM”, this compound came in with an IC50 of 36 nM.

Turning to `COc1cc2nc(NCc3nccs3)nc(NC3CCN(Cc4c(OCCN(C)C)cccc4N(C)C)CC3)c2cc1OC` [Compound 205, N˜4˜-(1-{2-(Dimethylamino)-6-[2-(dimethylamino)ethoxy]benzyl}piperidin-4-yl)-6,7-dimethoxy-N˜2˜-(1,3-thiazol-2-ylmethyl)quinazoline-2,4-diamine], the “CXCR4 (% Inh)” value is on record as 100%. Further, it took 32 nM to reach half-maximal inhibition (values in nM) (IC50).

Turning to `COc1cc2nc(NCCCN)nc(NC3CCN(Cc4c(OCCN(C)C)cccc4N(C)C)CC3)c2cc1OC` [Compound 182, N˜2˜-(3-Aminopropyl)-N˜4˜-(1-{2-(dimethylamino)-6-[2-(dimethylamino)ethoxy]benzyl}piperidin-4-yl)-6,7-dimethoxyquinazoline-2,4-diamine], the “CXCR4 (% Inh)” value is 94%. Under “values in nM”, this compound had an IC50 of 47 nM.

In the case of `CCN(CC)CCCNc1nc(NC2CCN(Cc3ccccc3-n3ccnc3)CC2)c2ccccc2n1` [Compound 131, N4-(1-(2-(1H-Imidazol-1-yl)benzyl)piperidin-4-yl)-N2-(3-(diethylamino)propyl)quinazoline-2,4-diamine], the “CXCR4 (% Inh)” value amounted to 74%. The same compound registered an IC50 (values given in μM) of 6600 nM.

Consider `COc1cc2nc(NCc3cn(C)cn3)nc(NC3CCN(Cc4c(OCCN(C)C)cccc4N(C)C)CC3)c2cc1OC` [Compound 215, N˜4˜-(1-{2-(Dimethylamino)-6-[2-(dimethylamino)ethoxy]benzyl}piperidin-4-yl)-6,7-dimethoxy-N˜2˜-[(1-methyl-1H-imidazol-4-yl)methyl]quinazoline-2,4-diamine], for which the “CXCR4 (% Inh)” value stood at 99%. Further, where the note is “values in nM”, the midpoint of inhibition, the IC50, lay at 73 nM.

In the case of `CCN(CC)CCNc1nc(NC2CCN(Cc3ccccc3N(C)C)CC2)c2ccccc2n1` [Compound 36, N2-(2-(Diethylamino)ethyl)-N4-(1-(2-(dimethylamino)benzyl)piperidin-4-yl)quinazoline-2,4-diamine], the “CXCR4 (% Inh)” value is reported as 90%. In addition, half-maximal inhibition (values in nM) (IC50) required 800 nM.

In the case of `COc1cccc(N(C)C)c1CN1CCC(Nc2nc(NC[C@@H]3CCN(C(=O)OC(C)(C)C)C3)nc3ccccc23)CC1` [Compound 112, (S)-tert-Butyl 3-((4-(1-(2-(Dimethylamino)-6-methoxybenzyl)piperidin-4-ylamino)quinazolin-2-ylamino)methyl)pyrrolidine-1-carboxylate], the “CXCR4 (% Inh)” value stood at 77%. Besides, the IC50 (values given in μM) was determined as 2100 nM.

For the compound `COc1cc2nc(NCC3CNC3)nc(NC3CCN(Cc4c(OCCN(C)C)cccc4N(C)C)CC3)c2cc1OC` [Compound 230, N2-(Azetidin-3-ylmethyl)-N4-(1-(2-(dimethylamino)-6-(2-(dimethylamino)ethoxy)benzyl)piperidin-4-yl)-6,7-dimethoxyquinazoline-2,4-diamine], the “CXCR4 (% Inh)” value is 96%. The compound further yielded a concentration for half-maximal inhibition (IC50) (values in nM) of 56 nM.

Consider `CCN(CC)CCCNc1nc(NC2CCN(Cc3ccccc3N3CCCC3)CC2)c2cc(OC)c(OC)cc2n1` [Compound 51], for which the “CXCR4 (% Inh)” value is 92%. Also, where the note is “values given in μM”, the IC50 is 1100 nM.

With `COCCCNc1nc(NC2CCN(Cc3c(OC)cccc3N(C)C)CC2)c2ccccc2n1` [Compound 87, N4-(1-(2-(Dimethylamino)-6-methoxybenzyl)piperidin-4-yl)-N2-(3-methoxypropyl)quinazoline-2,4-diamine], the “CXCR4 (% Inh)” value was 96%. Further, it took 810 nM to reach half-maximal inhibition (values in nM) (IC50).

For `CCN(CC)CCCNc1nc(NC2CCN(Cc3cccc4ccn(C)c34)CC2)c2ccccc2n1` [Compound 133, N2-(3-(Diethylamino)propyl)-N4-(1-((1-methyl-1H-indol-7-yl)methyl)piperidin-4-yl)quinazoline-2,4-diamine], the “CXCR4 (% Inh)” value worked out at 63%. Moreover, under “values given in μM”, the IC50 stood at 2200 nM.

The values above are taken from patent US8193203B2, “Bicyclic compounds having activity at the CXCR4 receptor” (Allergan, Inc., priority 2008, dated 2012).
